Assay results published in ChEMBL document CHEMBL1201862, “PubChem BioAssay data set” (2004).
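A five-concentration, 48-hour dose response in 96-well plates underlies each endpoint, interpolated linearly between surrounding concentrations. GI50 is the concentration that inhibits growth by half.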 The source made the active and inactive calls. Rule as the data show it: active = GI50 up to about 1.1 µM and inactive = higher. Starred links: 1 amine or outer side, 2 acyl side, 3 side chain; linkers in the order of their positions; H or OH if unused. Positions of bridges follow the written chain, without caps; N, C: chain ends. Where a SMILES comes first, the peptide text is derived from it. Non-standard residues stand in square brackets, D forms with d. Residues, ends and D or L forms follow the SMILES beside them. [ ]: non-standard residue; d: D form. The star is where a group is joined. ξ: configuration not given here. X37 = CC[C@H](C)[C@@H](N[*:1])[C@@H](O)CC(=O)O[C@H](C(=O)[C@H](C)C(=O)[*:2])C(C)C; Bn2Val = CC(C)[C@@H](C(=O)*)N(Cc1ccccc1)Cc1ccccc1; NMeY = CN[C@@H](Cc1ccc(O)cc1)C(=O)O; NHPiperonyl = c1cc2c(cc1CN*)OCO2; dNMeL = CN[C@H](CC(C)C)C(=O)O; NMeV = CN[C@H](C(=O)O)C(C)C; dNMeA = CN[C@H](C)C(=O)O; ξΔPro = O=C(O)C1C=CCN1

What was measured:
Assay in all cases: NCI-60 cell line screen, 48 h
U-251 = tested on: U-251
ACHN = tested on: ACHN
A549 = tested on: A549
IGROV-1 = tested on: IGROV-1
HCC 2998 = tested on: HCC 2998
NCI-H522 = tested on: NCI-H522
SK-MEL-28 = tested on: SK-MEL-28
SW-620 = tested on: SW-620
UACC-62 = tested on: UACC-62
MOLT-4 = tested on: MOLT-4
MCF7 = tested on: MCF7
KM12 = tested on: KM12
OVCAR-8 = tested on: OVCAR-8
OVCAR-3 = tested on: OVCAR-3
MDA-N = tested on: MDA-N
UO-31 = tested on: UO-31
NCI-H226 = tested on: NCI-H226
RPMI-8226 = tested on: RPMI-8226
M14 = tested on: M14
OVCAR-4 = tested on: OVCAR-4

Compound	GI50 (U-251)	GI50 (ACHN)	GI50 (A549)	GI50 (IGROV-1)	GI50 (HCC 2998)	GI50 (NCI-H522)	GI50 (SK-MEL-28)	GI50 (SW-620)	GI50 (UACC-62)	GI50 (MOLT-4)	GI50 (MCF7)	GI50 (KM12)	GI50 (OVCAR-8)	GI50 (OVCAR-3)	GI50 (MDA-N)	GI50 (UO-31)	GI50 (NCI-H226)	GI50 (RPMI-8226)	GI50 (M14)	GI50 (OVCAR-4)
CCC1(CCSC(=N)N)C(=O)NC(=O)NC1=O	> 100 µM (inactive)	> 100 µM (inactive)	> 100 µM (inactive)	> 100 µM (inactive)	> 100 µM (inactive)	> 100 µM (inactive)	> 100 µM (inactive)	> 100 µM (inactive)	> 100 µM (inactive)	> 100 µM (inactive)	> 100 µM (inactive)	> 100 µM (inactive)	> 100 µM (inactive)	> 100 µM (inactive)	> 100 µM (inactive)	> 100 µM (inactive)	> 100 µM (inactive)	> 100 µM (inactive)	> 100 µM (inactive)	> 100 µM (inactive)
CCOC(=O)C1(Cc2ccccc2)C=CN(C(=O)c2ccccc2)C=C1	29.2 µM (inactive)	34.1 µM (inactive)	42.4 µM (inactive)	61.5 µM (inactive)	63.4 µM (inactive)	24.5 µM (inactive)	30.8 µM (inactive)	32.2 µM (inactive)	20.2 µM (inactive)	20.6 µM (inactive)	30.4 µM (inactive)	36.9 µM (inactive)	34.4 µM (inactive)	41.3 µM (inactive)	24.3 µM (inactive)	45.8 µM (inactive)	> 100 µM (inactive)	18 µM (inactive)	35.5 µM (inactive)	42.8 µM (inactive)
CC(C)[C@H](NC(=O)[C@H](C(C)C)N(Cc1ccccc1)Cc1ccccc1)C(=O)N(C)[C@H](C(=O)N1CCC[C@H]1C(=O)N(C)[C@H](C)C(=O)NCc1ccc2c(c1)OCO2)C(C)C (Bn2Val-V[NMeV]P[dNMeA]-NHPiperonyl)	4.33 µM (inactive)	8.11 µM (inactive)	15.6 µM (inactive)	3.95 µM (inactive)	3.23 µM (inactive)	14.7 µM (inactive)	22.4 µM (inactive)	4.49 µM (inactive)	13 µM (inactive)	2.73 µM (inactive)	2.25 µM (inactive)	4.83 µM (inactive)	8.61 µM (inactive)	5.01 µM (inactive)	12.1 µM (inactive)	21.6 µM (inactive)	16.8 µM (inactive)	1.99 µM (inactive)	25.5 µM (inactive)	5.85 µM (inactive)
Cc1cc2c(cc1Cl)SC(NNC1=NCCN1)=NS2(=O)=O	> 10 µM (inactive)	> 10 µM (inactive)	> 10 µM (inactive)	> 10 µM (inactive)	> 10 µM (inactive)	> 10 µM (inactive)	> 10 µM (inactive)	> 10 µM (inactive)	> 10 µM (inactive)	> 10 µM (inactive)	0.00248 µM (active)	> 10 µM (inactive)	> 10 µM (inactive)	> 10 µM (inactive)	> 10 µM (inactive)	> 10 µM (inactive)	> 10 µM (inactive)	> 10 µM (inactive)	> 10 µM (inactive)	> 10 µM (inactive)
CC[C@H](C)[C@H]1NC(=O)[C@@H](NC(=O)[C@@H](CC(C)C)N(C)C(=O)C2C=CCN2)[C@@H](C)OC(=O)[C@H](Cc2ccc(OC)cc2)N(C)C(=O)[C@@H]2CCCN2C(=O)[C@H](CC(C)C)NC(=O)[C@@H](C)C(=O)[C@H](C(C)C)OC(=O)C[C@@H]1O (stereo not given in full) (H-[ξΔPro][dNMeL]T[X37]LP[NMeY](Me); ester 3-C)	< 0.005 µM (active)	< 0.005 µM (active)	< 0.005 µM (active)	< 0.005 µM (active)	< 0.005 µM (active)	< 0.005 µM (active)	< 0.005 µM (active)	< 0.005 µM (active)	< 0.005 µM (active)	< 0.005 µM (active)	< 0.005 µM (active)	< 0.005 µM (active)	< 0.005 µM (active)	< 0.005 µM (active)	< 0.005 µM (active)	0.0204 µM (active)	< 0.005 µM (active)	< 0.005 µM (active)	< 0.005 µM (active)	< 0.005 µM (active)
O=[N+]([O-])/C=C/c1cn(CCCCCCCCCCCCn2cc(/C=C/[N+](=O)[O-])c3ccccc32)c2ccccc12	> 100 µM (inactive)	> 100 µM (inactive)	> 100 µM (inactive)	> 100 µM (inactive)	> 100 µM (inactive)	> 100 µM (inactive)	> 100 µM (inactive)	> 100 µM (inactive)	> 100 µM (inactive)	> 100 µM (inactive)	> 100 µM (inactive)	> 100 µM (inactive)	> 100 µM (inactive)	> 100 µM (inactive)	> 100 µM (inactive)	> 100 µM (inactive)	> 100 µM (inactive)	> 100 µM (inactive)	> 100 µM (inactive)	> 100 µM (inactive)
CC(=O)NC(=O)/N=C1\NCCC(=O)N1CCc1c[nH]c2ccccc12	> 100 µM (inactive)	> 100 µM (inactive)	> 100 µM (inactive)	> 100 µM (inactive)	> 100 µM (inactive)	> 100 µM (inactive)	> 100 µM (inactive)	> 100 µM (inactive)	> 100 µM (inactive)	> 100 µM (inactive)	> 100 µM (inactive)	> 100 µM (inactive)	> 100 µM (inactive)	> 100 µM (inactive)	> 100 µM (inactive)	> 100 µM (inactive)	> 100 µM (inactive)	> 100 µM (inactive)	> 100 µM (inactive)	> 100 µM (inactive)
Cc1c(CCOC=O)c(=O)[nH]c2nncn12	> 100 µM (inactive)	> 100 µM (inactive)	> 100 µM (inactive)	> 100 µM (inactive)	> 100 µM (inactive)	> 100 µM (inactive)	> 100 µM (inactive)	> 100 µM (inactive)	> 100 µM (inactive)	> 100 µM (inactive)	> 100 µM (inactive)	> 100 µM (inactive)	> 100 µM (inactive)	> 100 µM (inactive)	> 100 µM (inactive)	> 100 µM (inactive)	> 100 µM (inactive)	> 100 µM (inactive)	> 100 µM (inactive)	> 100 µM (inactive)
CCCCCOC(=O)C(=O)Nc1[nH]nnc1C(N)=O	> 100 µM (inactive)	> 100 µM (inactive)	> 100 µM (inactive)	> 100 µM (inactive)	> 100 µM (inactive)	> 100 µM (inactive)	> 100 µM (inactive)	> 100 µM (inactive)	> 100 µM (inactive)	> 100 µM (inactive)	> 100 µM (inactive)	> 100 µM (inactive)	> 100 µM (inactive)	> 100 µM (inactive)	> 100 µM (inactive)	> 100 µM (inactive)	> 100 µM (inactive)	> 100 µM (inactive)	> 100 µM (inactive)	> 100 µM (inactive)
COc1ccc(C2c3cc4c(cc3OC(NNC(N)=O)C2C)OCO4)cc1 (stereo not given)	4.95 µM (inactive)	8.75 µM (inactive)	7.73 µM (inactive)	6.59 µM (inactive)	8.51 µM (inactive)	3.45 µM (inactive)	7.23 µM (inactive)	3.56 µM (inactive)	5.83 µM (inactive)	3.94 µM (inactive)	4.21 µM (inactive)	4.78 µM (inactive)	6.67 µM (inactive)	3.85 µM (inactive)	1.87 µM (inactive)	10.6 µM (inactive)	14.9 µM (inactive)	3.3 µM (inactive)	6.41 µM (inactive)	56.4 µM (inactive)
